Assay results from US7148250B2, “Indoles as NAALADase inhibitors” (Guilford Pharmaceuticals Inc., priority 2001, dated 2006).

System: BB/W rats
Test: Retinal disorders in diabetic BB/W rats (BM thickness, E/P ratio)
Assay type: in vivo, rat
Conditions: for BM THICKNESS ± SD (n = 3) / E/P RATIO (n = 8–10): diabetic BB/W rats
Description: Four (4) groups of rats received daily insulin injections to maintain their glucose levels at about 350 mg/dl. Starting at the onset of hyperglycemia, NAALADase inhibitor 2-(3-sulfanylpropyl)-pentanedioic acid was administered daily for 6 months to one group of BB/W rats at a dose of 10 mg/kg and to a second group of BB/W rats at a dose of 30 mg/kg. A third group of BB/W rats and a fourth group of non-diabetic rats received daily vehicle treatment (50 mM Hepes buffered saline).
After six (6) months of NAALADase inhibitor or vehicle treatment, the rats were sacrificed and their eyes were removed. From each rat, one eye was processed for elastase digest while the other eye was processed for transmission electron microscopy (TEM) and basement membrane (BM) thickness.
Retinal digests were prepared using elastase on retinas as described in Layer, N., Invest Ophthalmol Vis Sci (1993) 34:2097. Eyes were removed from recently killed BB/W rats (n=25) and age-matched […] controls (n=10). The retinas (n=35) were fixed at room temperature by immersing the whole eye (slit at limbus) in 4% (w/v) paraformaldehyde in 50 mmol/L Na—K phosphate buffer with 8% sucrose. The fixed retinas were rinsed in deionized water and were incubated for 3 minutes in a 37° C. agitating water bath in 40 units/mL elastase in Na—K phosphate buffer with 150 mmol/L NaCl and 5 mmol/L ethylenediamine tetraacetic acid (EDTA), pH 6.5. The tissues were washed overnight in 100 mmol/L Tris-HCL (pH 8.5) and then transferred to deionized water for removal of the loosened vitreous and digested neural elements by gentle agitation using the sides of closed forceps and the sides and ends of very fine brushes. After all loose tissues were removed, the retinas were incubated once more in fresh enzyme for 3 minutes and then subjected to a second overnight wash at room temperature in Tns-HCl buffer. On the third day, the retinas were again transferred to deionized water for additional removal of digested neural elements. The vascular network that was completely free of nonvascular elements was mounted flat by flotation in Ca^2+ and Mg^2+ free Dulbecco's PBS on siliconized slides (#S1308, Oncor, Gaithersburg, Md.). After air drying in a dust free environment, the mounts of the retinal microvasculature were stained using periodic acid Schiff reaction and hematoxylin counterstaining, as described in Luna, L., ed. Manual of Histologic Staining Methods of the Armed Forces Institute of Pathology (1968) McGraw-Hill, New York, N.Y. The preparations were then examined by light microscopy and photographed.
The stained and intact retinal whole mounts were coded and subsequent counting was done masked, as described in Cuthbertson, R., Invest Ophthalmol Vis Sci. (1986) 27:1659–1664).
Ten fields at ×100 magnification were counted for endothelial and pericyte cells using previously described morphologic criteria (see Kuwabara, T., Arch Ophthalmol. (1960) 64:904–911). In every sample, at least 200 cells were counted from the mid zone of the retina. Mean values for endothelial cell/pericyte (E/P) ratios were initially calculated in 3 retinas from each of the four (4) groups of rats.
Each eye was fixed in 4% glutaraldehyde and dissected free of sclera and choroids, then trimmed and postfixed in 1% osmium tetroxide. After dehydration and embedding, thin sections were stained with uranyl acetate and lead citrate. Initially, BM thickness of retinal capillaries from 3 non-diabetic rats receiving vehicle, 3 diabetic animals receiving 10 mg/kg 2-(3-sulfanylpropyl)-pentanedioic acid, and 3 diabetic rats receiving 30 mg/kg 2-(3-sulfanylpropyl)-pentanedioic acid were compared with 3 diabetic rats receiving a vehicle. At least 10 capillaries per eye from the inner nuclear and plexiform layers were photographed at a magnification of 10,000×. Exact magnification was determined for each set of negatives with a 28,800 line/inch calibration grid. Negatives were enlarged 3×. […]

[1] = 10 mg/kg daily for 6 months, 10 mg/kg
[2] = 10 mg/kg daily for 6 months, listed as NAALADASE INHIBITOR, 10 mg/kg
[3] = 30 mg/kg daily for 6 months, 30 mg/kg
[4] = 30 mg/kg daily for 6 months, listed as NAAALADASE INHIBITOR, 30 mg/kg
[5] = high dose (30 mg/kg), six months
[6] = low dose (10 mg/kg), six months

O=C(O)CCC(CCCS)C(=O)O (stereo not drawn) [Compound B, 2-(3-sulfanylpropyl)-pentanedioic acid]
BM THICKNESS ± SD (n = 3) [1]: 82.3±4.07 nm
E/P RATIO (n = 8–10) [1]: 2.4±0.5
BM THICKNESS ± SD (n = 3) [2]: 82.3 ± 4.07 nm
E/P RATIO (n = 8–10) [2]: 2.4 ± 0.5
BM THICKNESS ± SD (n = 3) [3]: 71.7±4.07 nm
E/P RATIO (n = 8–10) [3]: 1.9±0.4
BM THICKNESS ± SD (n = 3) [4]: 71.7 ± 4.07 nm
E/P RATIO (n = 8–10) [4]: 1.9 ± 0.4
reduction in BM thickness versus diabetic vehicle [5]: 29.0%
reduction of E/P ratios versus diabetic vehicle [5]: 37%
decrease in BM thickness versus diabetic vehicle [6]: 18.5%
reduction of E/P ratios versus diabetic vehicle [6]: 20%
